Assay: induction time of calcium oxalate crystallization in synthetic urine
Conditions: 200 mg/L calcium and 50 mg/L oxalate
Method: Thus, when there is neither magnesium nor phytate, the calcium oxalate takes 1 minute to crystallize. This time increases up to 10 minutes when […] magnesium is added and, in turn, it increases up to 44 minutes if, in addition to the 10 mg/L magnesium, 1 mg/L phytate is added.

O=P(O)(O)O[C@H]1[C@H](OP(=O)(O)O)[C@@H](OP(=O)(O)O)[C@H](OP(=O)(O)O)[C@@H](OP(=O)(O)O)[C@H]1OP(=O)(O)O [phytate, myo-inositol-hexaphosphate]
induction times of crystallization t (0.5 mg/L phytate, 0 mg/L Mg): 3 min
induction times of crystallization t (0.75 mg/L phytate, 0 mg/L Mg): 4 min
induction times of crystallization t (1 mg/L phytate, 0 mg/L Mg): 6.5 min

[Mg+2] [Mg, magnesium]
induction times of crystallization t (0 mg/L phytate, 25 mg/L Mg): 1.5 min
induction times of crystallization t (0 mg/L phytate, 75 mg/L Mg): 6 min
induction times of crystallization t (0 mg/L phytate, 100 mg/L Mg): 10 min
time calcium oxalate takes to crystallize (induction time) (100 mg/L magnesium, no phytate): 10 min

Reference: US11213535B2, “Composition containing phytic acid, magnesium and polyphenols for the treatment or prevention of renal lithiasis” (UNIVERSITAT DE LES ILLES BALEARS, priority 2014, dated 2022)
